Measurements reported in patent US3974140A, “Ureidoacetamido-penicillins” (Bayer Aktiengesellschaft, priority 1970, dated 1976).

Experiments:
Assay in all cases: MIC, liquid medium test tube series dilution test
[1] = test system: Psdm. aerug. Walter; format: cell-based, Pseudomonas aerug.; details: 24 hours, 37°C
Experimental: (§1) The chemotherapeutic activity of the new penicillins was tested in vivo and in vitro. The in vitro inhibition values (MIC = minimum inhibition concentration (see Tables 1 and 2) were determined in a liquid medium in the test tube series dilution test, with readings being taken after 24 hours' incubation at 37°C. The MIC is indicated by the non-turbid test tube in the dilution series. A complete medium of the following composition was used as the nutrient medium:
(§2) The figures quoted in the Examples for the effectiveness against certain bacteria (units/ml) are minimum inhibitory concentrations in the test tube series dilution test after 24 hours' incubation.

[2] = test system: Psdm. aerug. Bonn; format: cell-based, Pseudomonas aerug.; details: 24 hours, 37°C
Experimental: as §1, §2

[3] = test system: E. coli A 261; format: cell-based; details: E. coli A 261, 24 hours, 37°C
Experimental: as §1, §2

[4] = test system: E. coli 183/58; format: cell-based; details: E. coli 183/58, 24 hours, 37°C
Experimental: as §1, §2

[5] = test system: Klebsiella K 10; format: cell-based; details: Klebsiella K 10, 24 hours, 37°C
Experimental: as §1, §2

[6] = test system: Streptoc. faec. ATCC 9790; format: cell-based; details: Strep. faec. (Enterococcus) ATCC 9790, 24 hours, 37°C
Experimental: as §1, §2

[7] = test system: E. coli 14; format: cell-based; details: E. coli 14, 24 hours, 37°C
Experimental: as §1, §2

[8] = test system: E. coli C 165; format: cell-based; details: E. coli C 165, 24 hours, 37°C
Experimental: as §1, §2

[9] = test system: Klebsiella 63; format: cell-based; details: Klebsiella 63, 24 hours, 37°C
Experimental: as §1, §2

[10] = test system: Proteus vulg. 3400; format: cell-based, Proteus vulgaris; details: Proteus vulg. 3400, 24 hours, 37°C
Experimental: as §1, §2

[11] = test system: Proteus vulg. 1017; format: cell-based, Proteus vulgaris; details: Proteus vulg. 1017, 24 hours, 37°C
Experimental: as §1, §2

[12] = test system: Staph. aureus 133; format: cell-based, Staphylococcus aureus; details: Staph. aureus 133, 24 hours, 37°C
Experimental: as §1, §2

| Compound | MIC [1] | MIC [2] | MIC [3] | MIC [4] | MIC [5] | MIC [6] | MIC [7] | MIC [8] | MIC [9] | MIC [10] | MIC [11] | MIC [12] | also measured |
| --- | --- | --- | --- | --- | --- | --- | --- | --- | --- | --- | --- | --- | --- |
| C=CCN(C(C)=O)C(=O)NC(C(=O)N[C@@H]1C(=O)N2[C@@H]1SC(C)(C)[C@@H]2C(=O)O)c1cccs1 (stereo partly drawn) [Example 17, Sodium D,L-α-(3-acetyl-3-allyl-ureido)-2-thienylmethylpenicillin] | 100-500 units/ml | 100-500 units/ml | > 500 units/ml | 20-100 units/ml | 20-100 units/ml | 20-100 units/ml | 4-20 units/ml | 20-100 units/ml | 20-100 units/ml | 100-500 units/ml | > 500 units/ml | < 0.8 units/ml |  |
| CCOC(=O)N(C)C(=O)NC(C(=O)N[C@@H]1C(=O)N2[C@@H]1SC(C)(C)[C@@H]2C(=O)O)c1ccc(SC)cc1 (stereo partly drawn) [Example 35, Sodium α-(3-ethoxycarbonyl-3-methyl-ureido)-4-methylthiobenzylpenicillin] | approx. 20 units/ml | 4-20 units/ml | 100-500 units/ml | 4-20 units/ml | 20-100 units/ml | 20-100 units/ml | approx. 4 units/ml | 20-100 units/ml | 20-100 units/ml | 20-100 units/ml | 20-100 units/ml | < 0.8 units/ml |  |
| CC1(C)S[C@@H]2[C@H](NC(=O)[C@H](NC(=O)N(CCCl)C(=O)CCC(Cl)(Cl)Cl)c3ccccc3)C(=O)N2[C@H]1C(=O)O [Example 72, Sodium D(-)-α-(3-γ-trichlorobutyryl-3-β-chloroethyl-ureido)-benzylpenicillin] | 400 units/ml | 50 units/ml | 400 units/ml | 12.5 units/ml | 100 units/ml | 100 units/ml | 6.25 units/ml | 25 units/ml | 50 units/ml | 200 units/ml | 50 units/ml | < 0.78 units/ml |  |
| CCCCCCCCCCCCCCCCN(C(C)=O)C(=O)N[C@@H](C(=O)N[C@@H]1C(=O)N2[C@@H]1SC(C)(C)[C@@H]2C(=O)O)c1ccccc1 [Example 74, Sodium D(-)-α-(3-acetyl-3-hexadecyl-ureido)-benzylpenicillin] | > 400 units/ml | > 400 units/ml | > 400 units/ml | > 400 units/ml | > 400 units/ml | > 400 units/ml | 100 units/ml | > 400 units/ml | > 400 units/ml | > 400 units/ml | > 400 units/ml | 25 units/ml |  |
| CC1(C)S[C@@H]2[C@H](NC(=O)C(NC(=O)N3CCNC3=O)c3ccc(Cl)cc3)C(=O)N2[C@H]1C(=O)O (stereo partly drawn) [Example 48 A, Sodium α-[(imidazolidin-2-on-1-yl)-carbonylamino]-p-chlorobenzylpenicillin] |  |  |  |  | 100 units/ml |  |  |  | 50 units/ml |  |  |  | MIC ([2]; listed as 48 A): 25 units/ml; MIC ([6]; listed as 48 A): 25 units/ml; MIC ([8]; listed as 48 A): 12,5 units/ml; MIC ([10]; listed as 48 A): 50 units/ml; MIC ([11]; listed as 48 A): 25 units/ml |
| Cc1noc(C)c1C(=O)N(C)C(=O)N[C@@H](C(=O)N[C@@H]1C(=O)N2[C@@H]1SC(C)(C)[C@@H]2C(=O)O)c1ccccc1 [Example 76] |  |  |  | ~ 4 units/ml |  |  |  |  |  |  |  | < 0.8 units/ml |  |

Further lines, with some results ahead:

| MIC [1] | MIC [2] | MIC [3] | MIC [4] | MIC [5] | MIC [6] | MIC [7] | MIC [8] | MIC [9] | MIC [10] | MIC [11] | MIC [12] | Compound | also measured |
| --- | --- | --- | --- | --- | --- | --- | --- | --- | --- | --- | --- | --- | --- |
| 100 units/ml | 100 units/ml | 400 units/ml | 12.5 units/ml | 50 units/ml | 200 units/ml | 3.1 units/ml | 12.5 units/ml | 50 units/ml | 25 units/ml | 100 units/ml | ~ 0.8 units/ml | CN(C(=O)CCCCl)C(=O)N[C@@H](C(=O)N[C@@H]1C(=O)N2[C@@H]1SC(C)(C)[C@@H]2C(=O)O)c1ccccc1 [Example 2, Sodium D(-)-α-(3-γ-chlorobutyryl-3-methyl-ureido)-benzylpenicillin] |  |
| 25 units/ml | 25 units/ml |  | 25 units/ml | 200 units/ml | 25 units/ml | 6.25 units/ml | 12.5 units/ml | 200 units/ml | 50 units/ml | 50 units/ml | 1.56 units/ml | COC(=O)N(C)C(=O)N[C@@H](C(=O)N[C@@H]1C(=O)N2[C@@H]1SC(C)(C)[C@@H]2C(=O)O)c1ccccc1 [Example 96, Sodium D(-)-α-(3-methoxycarbonyl-3-methyl-ureido)-benzylpenicillin] | MIC ([1]; listed as (B) of Example 10): 25 units/ml; MIC ([2]; listed as (B) of Example 10): 25 units/ml; MIC ([4]; listed as (B) of Example 10): 25 units/ml; MIC ([5]; listed as (B) of Example 10): 200 units/ml; MIC ([7]; listed as (B) of Example 10): 6.25 units/ml; MIC ([9]; listed as (B) of Example 10): 200 units/ml; MIC ([12]; listed as (B) of Example 10): 1.56 units/ml |
| 20-100 units/ml | 0.8-4 units/ml | > 500 units/ml |  |  | ~ 20 units/ml |  | 4-20 units/ml | 100-500 units/ml |  | 20-100 units/ml | < 0.8 units/ml | CCN(C(=O)N[C@@H](C(=O)N[C@@H]1C(=O)N2[C@@H]1SC(C)(C)[C@@H]2C(=O)O)c1ccccc1)C(=O)c1ccc(OC)c([N+](=O)[O-])c1 [Example 108, Sodium D(-)-α-(3-[3-nitro-4-methoxy-benzoyl]-3-ethyl-ureido)benzylpenicillin] |  |
| 6.25 units/ml | 12.5 units/ml | 50 units/ml | 1.6 units/ml | 6.25 units/ml |  | 0.8 units/ml | 3.1 units/ml | 12.5 units/ml | 3.1 units/ml | 3.1 units/ml |  | CN(C(=O)N[C@@H](C(=O)N[C@@H]1C(=O)N2[C@@H]1SC(C)(C)[C@@H]2C(=O)O)c1ccccc1)C(=O)c1c(Cl)cccc1Cl [Example 141, Sodium D(-)-α-(3, o,o'-dichlorobenzoyl-3-methyl-ureido)-benzyl-penicillin] |  |
|  | 25 units/ml |  |  |  |  | 6.25 units/ml |  |  | 50 units/ml |  |  | CC1(C)S[C@@H]2[C@H](NC(=O)[C@H](NC(=O)NC(=O)c3ccccc3)c3ccccc3)C(=O)N2[C@H]1C(=O)O [sodium D(-)-α-(3-benzoylureido)benzylpenicillin, reference compound] |  |
| 50 units/ml | 25 units/ml |  | 6.25 units/ml | 400 units/ml |  | 6.25 units/ml | 25 units/ml | 50 units/ml | 25 units/ml | 25 units/ml |  | CC(C)OC(=O)N(C)C(=O)N[C@@H](C(=O)N[C@@H]1C(=O)N2[C@@H]1SC(C)(C)[C@@H]2C(=O)O)c1ccccc1 [Example 97, Sodium D(-)-α-(3-i-propoxycarbonyl-3-methyl-ureido)-benzylpenicillin] | MIC ([1]; listed as (B) of Example 11): 50 units/ml; MIC ([2]; listed as (B) of Example 11): 25 units/ml; MIC ([4]; listed as (B) of Example 11): 6.25 units/ml; MIC ([7]; listed as (B) of Example 11): 6.25 units/ml; MIC ([8]; listed as (B) of Example 11): 25 units/ml |
| 20-100 units/ml | 20-100 units/ml | 100-500 units/ml | 4-20 units/ml | 20-100 units/ml | 100-500 units/ml | 0.8-4 units/ml | 4-20 units/ml | 20-100 units/ml | 4-20 units/ml | 4-20 units/ml |  | Cc1ccc(C(NC(=O)N(C)C(=O)c2ccccc2)C(=O)N[C@@H]2C(=O)N3[C@@H]2SC(C)(C)[C@@H]3C(=O)O)cc1 (stereo partly drawn) [Example 4, Sodium D,L-α-(3-benzoyl-3-methyl-ureido)-p-methylbenzyl-penicillin] |  |
